Where only a bound is given, the exact number is not on record here.

For one test, the target named is T1, GR (Homo sapiens, UniProt P04150).
T1 construct: expressed in transfected cells; host or cells: CHO-K1
T1 sequence (P04150 1-777): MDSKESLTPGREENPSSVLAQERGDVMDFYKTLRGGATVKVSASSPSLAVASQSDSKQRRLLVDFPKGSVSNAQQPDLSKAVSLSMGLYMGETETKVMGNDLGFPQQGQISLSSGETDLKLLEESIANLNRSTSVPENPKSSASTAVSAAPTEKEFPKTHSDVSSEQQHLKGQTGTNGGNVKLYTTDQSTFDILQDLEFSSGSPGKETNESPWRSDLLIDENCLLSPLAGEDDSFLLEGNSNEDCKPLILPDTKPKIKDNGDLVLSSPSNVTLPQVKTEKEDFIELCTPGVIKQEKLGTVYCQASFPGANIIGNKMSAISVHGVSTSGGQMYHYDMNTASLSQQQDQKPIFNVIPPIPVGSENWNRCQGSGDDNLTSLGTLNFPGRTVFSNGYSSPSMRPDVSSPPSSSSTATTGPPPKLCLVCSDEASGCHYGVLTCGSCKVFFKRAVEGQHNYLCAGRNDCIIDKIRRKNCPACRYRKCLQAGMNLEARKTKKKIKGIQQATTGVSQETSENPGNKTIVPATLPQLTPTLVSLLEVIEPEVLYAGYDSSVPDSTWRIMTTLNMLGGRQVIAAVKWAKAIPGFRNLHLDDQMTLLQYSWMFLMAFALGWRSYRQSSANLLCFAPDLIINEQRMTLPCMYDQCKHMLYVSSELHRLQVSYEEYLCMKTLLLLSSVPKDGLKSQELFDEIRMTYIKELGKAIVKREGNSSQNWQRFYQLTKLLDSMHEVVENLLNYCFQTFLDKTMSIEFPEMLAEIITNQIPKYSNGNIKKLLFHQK
Put plainly: In Vitro GR Luciferase Reporter Assay (antagonist mode, CHO-K1-GR-MMTV-Luc reporter cells). In kind it is cell-based. To be noted: antagonist assay with 10 nM Dexamethasone, 18-24 hours. The text has this:
Example A: In Vitro GR Luciferase Reporter Assay
Cell Line: CHO-K1-GR-MMTV-Luc reporter cells
Culture Media: DMEM (with phenol red)+10% FBS
Assay Media: DMEM (without phenol red)+10% CSS
Culture CHO-K1I-GR-MMTV-Luc reporter cells in 15 cm plates in Culture Media at conditions less than 90% confluence.
Prepare 200×DMSO 1:5 serial dilutions of control and test compounds in 96-well non-sterile V bottom plate in DMSO, 8serial dilutions for each compound.
Prepare 5× Assay Media diluted compound serial dilutions in 96-well non-sterile V bottom plate: Add 97.5 uL/well of Assay Media into 96-well then add 2.5 ul of 200× concentration of compounds and mix well.
Seed cells for Antagonist Assay: […] CHO-K1-GR-MMTV-Luc reporter cells were seeded in a Corning 3707 flat clear bottom 384-well white TC plate in 20 ul of Assay Media containing 12.5 nM Dexamethasone (final concentration=10 nM).
Add compounds: 5 ul of assay media diluted compounds were added to appropriate wells and followed a quick spin (1000 rpm, 10 sec) to bring media and cells to the bottom of plate. The plates were covered with SealMate film to avoid evaporation and placed in 37° C. incubator for approximately 18-24 hours.
Read plates: Equilibrate appropriate amount of Promega OneGlo luciferase reagent to room temperature. Remove the plates from incubator and add 25 uL of OneGlo reagent/well by multiple channel pipette and read the plates with Tecan F500 luminometer within 3 minutes.
The ability of the compounds disclosed herein to inhibit GR activity was quantified and the respective IC50 value was determined. Table 1and Table 2provide the cellular IC50 values of compounds disclosed herein.
For orientation: In a reporter assay the amount or activity of a reporter protein is the signal.
`Cc1ccc(S(=O)(=O)[C@H]2CCC3=Cc4c(cnn4-c4ccc(F)cc4)C[C@]3(C(=O)c3ccccn3)C2)cc1` [Example 1, ((4aS,6S)-1-(4-Fluorophenyl)-6-tosyl-1,4,5,6,7,8-hexahydro-4aH-benzo[f]indazol-4a-yl)(pyridin-2-yl)methanone] gave an IC50 of at most 100 nM. The compound `Cc1ccc(S(=O)(=O)[C@@H]2CCC3=Cc4c(cnn4-c4ccc(F)cc4)C[C@]3(C(=O)c3ccccn3)C2)cc1` [Example 2, ((4aS,6R)-1-(4-Fluorophenyl)-6-tosyl-1,4,5,6,7,8-hexahydro-4aH-benzo[f]indazol-4a-yl)(pyridin-2-yl)methanone] had an IC50 of at most 100 nM. Regarding `Cn1cc(S(=O)(=O)[C@H]2CCC3=Cc4c(cnn4-c4ccc(F)cc4)C[C@]3(C(=O)c3cc(C(F)(F)F)ccn3)C2)cn1` [Example 3, ((4aS,6S)-1-(4-Fluorophenyl)-6-((1-methyl-1H-pyrazol-4-yl)sulfonyl)-1,4,5,6,7,8-hexahydro-4aH-benzo[f]indazol-4a-yl)(4-(trifluoromethyl)pyridin-2-yl)methanone], the IC50 was at most 100 nM.

The same test, now with this note: antagonist mode, 10 nM Dexamethasone.
Compound `C[C@@]1(S(=O)(=O)c2ccccc2)CCC2=Cc3c(cnn3-c3ccc(F)cc3)C[C@]2(C(=O)c2ccccn2)C1` (single isomer, unassigned) [Example 116, ((4aS,6R)-1-(4-Fluorophenyl)-6-methyl-6-(phenylsulfonyl)-1,4,5,6,7,8-hexahydro-4aH-benzo[f]indazol-4a-yl)(pyridin-2-yl)methanone or ((4aS,6S)-1-(4-fluorophenyl)-6-methyl-6-(phenylsulfonyl)-1,4,5,6,7,8-hexahydro-4aH-benzo[f]indazol-4a-yl)(pyridin-2-yl)methanone] came in with an IC50 of at most 100 nM. On the same count and under the same terms, to `C[C@@]1(S(=O)(=O)c2ccccc2)CCC2=Cc3c(cnn3-c3ccc(F)cc3)C[C@]2(C(=O)c2ccccn2)C1` (single isomer, unassigned) [Example 117, ((4aS,6R)-1-(4-Fluorophenyl)-6-methyl-6-(phenylsulfonyl)-1,4,5,6,7,8-hexahydro-4aH-benzo[f]indazol-4a-yl)(pyridin-2-yl)methanone or ((4aS,6S)-1-(4-fluorophenyl)-6-methyl-6-(phenylsulfonyl)-1,4,5,6,7,8-hexahydro-4aH-benzo[f]indazol-4a-yl)(pyridin-2-yl)methanone] belongs 100 to 1000 nM; to `Cn1cc(S(=O)(=O)C[C@@H]2CCC3=Cc4c(cnn4-c4ccc(F)cc4)C[C@]3(C(=O)c3cc(C(F)(F)F)ccn3)C2)cn1` (single isomer, unassigned) [Example 119], at most 100 nM; to `C[C@H]([C@H]1CCC2=Cc3c(cnn3-c3ccc(F)cc3)C[C@]2(C(=O)c2cc(C(F)(F)F)ccn2)C1)S(=O)(=O)c1cnn(C)c1` (single isomer, unassigned) [Example 120, ((4aR,6S)-1-(4-Fluorophenyl)-6-((R)-1-((1-methyl-1H-pyrazol-4-yl)sulfonyl)ethyl)-1,4,5,6,7,8-hexahydro-4aH-benzo[f]indazol-4a-yl)(4-(trifluoromethyl)pyridin-2-yl)methanone or ((4aR,6S)-1-(4-fluorophenyl)-6-((S)-1-((1-methyl-1H-pyrazol-4-yl)sulfonyl)ethyl)-1,4,5,6,7,8-hexahydro-4aH-benzo[f]indazol-4a-yl)(4-(trifluoromethyl)pyridin-2-yl)methanone], at most 100 nM. Take `C[C@H]([C@H]1CCC2=Cc3c(cnn3-c3ccc(F)cc3)C[C@]2(C(=O)c2cc(C(F)(F)F)ccn2)C1)S(=O)(=O)c1cnn(C)c1` (single isomer, unassigned) [Example 121, ((4aR,6S)-1-(4-Fluorophenyl)-6-((R)-1-((1-methyl-1H-pyrazol-4-yl)sulfonyl)ethyl)-1,4,5,6,7,8-hexahydro-4aH-benzo[f]indazol-4a-yl)(4-(trifluoromethyl)pyridin-2-yl)methanone or ((4aR,6S)-1-(4-fluorophenyl)-6-((S)-1-((1-methyl-1H-pyrazol-4-yl)sulfonyl)ethyl)-1,4,5,6,7,8-hexahydro-4aH-benzo[f]indazol-4a-yl)(4-(trifluoromethyl)pyridin-2-yl)methanone]: the 50% inhibitory concentration (IC50) was at most 100 nM.

As a reminder, the IC50 is the point on the concentration scale where inhibition reaches its midpoint.
